Measured values reported in ChEMBL document CHEMBL2380271, “Synthesis and biological evaluation of a class of quinolone triazoles as potential antimicrobial agents and their interactions with calf thymus DNA” (2013).
Values after ≈ are worked out from the molar mass of the structure shown.

Legend:
[1] = tested on: Shigella dysenteriae; experiment: Antibacterial activity against Shigella dysenteriae by NCCLS method; assay type: functional
[2] = tested on: Candida albicans; experiment: Antifungal activity against Candida albicans by NCCLS method; assay type: functional
[3] = tested on: Escherichia coli; experiment: Antibacterial activity against Escherichia coli DH52 by NCCLS method; assay type: functional
[4] = tested on: Salmonella typhi; experiment: Antibacterial activity against Eberthella typhosa by NCCLS method; assay type: functional, Salmonella enterica subsp. enterica serovar Typhi; conditions: Salmonella enterica
[5] = tested on: Staphylococcus aureus; experiment: Antibacterial activity against Staphylococcus aureus ATCC 25923 by NCCLS method; assay type: functional
[6] = tested on: Aspergillus flavus; experiment: Ratio of Fluconazole MIC to compound MIC for Aspergillus flavus; assay type: functional
[7] = tested on: Pseudomonas aeruginosa; experiment: Antibacterial activity against Pseudomonas aeruginosa by NCCLS method; assay type: functional
[8] = tested on: Aspergillus flavus; experiment: Antifungal activity against Aspergillus flavus by NCCLS method; assay type: functional
[9] = tested on: Micrococcus luteus; experiment: Antibacterial activity against Micrococcus luteus ATCC 4698 by NCCLS method; assay type: functional
[10] = tested on: Saccharomyces cerevisiae; experiment: Antifungal activity against Saccharomyces cerevisiae by NCCLS method; assay type: functional
[11] = tested on: Cyberlindnera jadinii; experiment: Antifungal activity against Candida utilis by NCCLS method; assay type: functional; conditions: Williopsis jadinii
[12] = tested on: Staphylococcus aureus; experiment: Antibacterial activity against methicillin-resistant Staphylococcus aureus N315 by NCCLS method; assay type: functional
[13] = tested on: Staphylococcus aureus; experiment: Ratio of norfloxacin MIC to compound MIC for methicillin-resistant Staphylococcus aureus N315; assay type: functional
[14] = tested on: Staphylococcus aureus; experiment: Ratio of chloromycin MIC to compound MIC for methicillin-resistant Staphylococcus aureus N315; assay type: functional

| Structure (SMILES) | MIC [1] [µg/mL] | MIC [2] [µg/mL] | MIC [3] [µg/mL] | MIC [4] [µg/mL] | MIC [5] [µg/mL] | Ratio [6] | MIC [7] [µg/mL] | MIC [8] [µg/mL] | MIC [9] [µg/mL] | MIC [10] [µg/mL] | MIC [11] [µg/mL] | MIC [12] [µg/mL] | Ratio [13] | Ratio [14] |
| --- | --- | --- | --- | --- | --- | --- | --- | --- | --- | --- | --- | --- | --- | --- |
| CCOC(=O)c1cn(CC2CO2)c2c(F)cccc2c1=O (racemic) | 512 (≈ 1760 µM) | 1 (≈ 3.43 µM) | 16 (≈ 54.9 µM) | 2 (≈ 6.87 µM) | 2 (≈ 6.87 µM) | 256 | 256 (≈ 879 µM) | 0.5 (≈ 1.72 µM) | > 512 | 4 (≈ 13.7 µM) | > 512 | 2 (≈ 6.87 µM) |  |  |
| CCOC(=O)c1cn(CC2CO2)c2c(Cl)cc(Cl)cc2c1=O (racemic) | > 512 | 2 (≈ 5.84 µM) | 32 (≈ 93.5 µM) | 2 (≈ 5.84 µM) | 1 (≈ 2.92 µM) | 256 | 0.5 (≈ 1.46 µM) | 0.5 (≈ 1.46 µM) | > 512 | 8 (≈ 23.4 µM) | > 512 | 2 (≈ 5.84 µM) |  |  |
| CCOC(=O)c1cn(CC2CO2)c2ccc(C)cc2c1=O (racemic) | 128 (≈ 446 µM) | 2 (≈ 6.96 µM) | 128 (≈ 446 µM) | 2 (≈ 6.96 µM) | 256 (≈ 891 µM) |  | 32 (≈ 111 µM) | 16 (≈ 55.7 µM) | 32 (≈ 111 µM) | 64 (≈ 223 µM) | 256 (≈ 891 µM) | 16 (≈ 55.7 µM) |  |  |
| CCOC(=O)c1cn(CC(O)Cn2cncn2)c2ccc(C)cc2c1=O (racemic) | 4 (≈ 11.2 µM) | 128 (≈ 359 µM) | 4 (≈ 11.2 µM) | 4 (≈ 11.2 µM) | 64 (≈ 180 µM) |  | 2 (≈ 5.61 µM) | 256 (≈ 718 µM) | 16 (≈ 44.9 µM) | 64 (≈ 180 µM) | > 512 | 2 (≈ 5.61 µM) |  |  |
| CCOC(=O)c1cn(CC(O)Cn2cncn2)c2c(Cl)cc(Cl)cc2c1=O (racemic) | 128 (≈ 311 µM) | 512 (≈ 1240 µM) | 4 (≈ 9.73 µM) | 4 (≈ 9.73 µM) | 1 (≈ 2.43 µM) |  | 4 (≈ 9.73 µM) | 0.5 (≈ 1.22 µM) | 8 (≈ 19.5 µM) | 32 (≈ 77.8 µM) | > 512 | 1 (≈ 2.43 µM) | 8 | 16 |
| O=C(O)c1cn(CC(O)Cn2cncn2)c2cc(C(F)(F)F)ccc2c1=O (configuration not stated) | 1 (≈ 2.62 µM) | 1 (≈ 2.62 µM) | 8 (≈ 20.9 µM) | 4 (≈ 10.5 µM) | 1 (≈ 2.62 µM) |  | 8 (≈ 20.9 µM) | 512 (≈ 1340 µM) | 2 (≈ 5.23 µM) | 256 (≈ 670 µM) | > 512 | 1 (≈ 2.62 µM) | 8 | 16 |
| O=C(O)c1cn(CC(O)Cn2cncn2)c2c(F)cc(F)cc2c1=O (configuration not stated) | 16 (≈ 45.7 µM) | 8 (≈ 22.8 µM) | 2 (≈ 5.71 µM) | 1 (≈ 2.85 µM) | 2 (≈ 5.71 µM) |  | 2 (≈ 5.71 µM) | 256 (≈ 731 µM) | 2 (≈ 5.71 µM) | 512 (≈ 1460 µM) | > 512 | 8 (≈ 22.8 µM) |  |  |
| O=C(O)c1cn(CC(O)Cn2cncn2)c2c(F)cccc2c1=O (configuration not stated) | 1 (≈ 3.01 µM) | 16 (≈ 48.2 µM) | 4 (≈ 12 µM) | 64 (≈ 193 µM) | 32 (≈ 96.3 µM) |  | 8 (≈ 24.1 µM) | 128 (≈ 385 µM) | 8 (≈ 24.1 µM) | 256 (≈ 770 µM) | > 512 | 64 (≈ 193 µM) |  |  |
| OC(Cn1cncn1)(Cn1cncn1)c1ccc(F)cc1F [FLUCONAZOLE] | > 512 | 1 (≈ 3.27 µM) | > 512 | > 512 | > 512 |  | > 512 | 256 (≈ 836 µM) | > 512 | 16 (≈ 52.2 µM) | 8 (≈ 26.1 µM) | > 512 |  |  |
| CCOC(=O)c1cn(CC(O)Cn2cncn2)c2ccc(F)cc2c1=O (racemic) | 64 (≈ 178 µM) | 32 (≈ 88.8 µM) | 16 (≈ 44.4 µM) | 1 (≈ 2.78 µM) | 32 (≈ 88.8 µM) |  | 16 (≈ 44.4 µM) | 512 (≈ 1420 µM) | 8 (≈ 22.2 µM) | 512 (≈ 1420 µM) | 64 (≈ 178 µM) | 8 (≈ 22.2 µM) |  |  |
| O=C(N[C@H](CO)[C@H](O)c1ccc([N+](=O)[O-])cc1)C(Cl)Cl [CHLORAMPHENICOL] | 32 (≈ 99 µM) | > 512 | 32 (≈ 99 µM) | 32 (≈ 99 µM) | 16 (≈ 49.5 µM) |  | 32 (≈ 99 µM) | > 512 | 8 (≈ 24.8 µM) | > 512 | > 512 | 16 (≈ 49.5 µM) |  |  |
